One assay has as its target T1, PARP1 (Homo sapiens, UniProt P09874).
T1 construct: purchased BPS 80501
Description: PARP1 enzyme assay (histone-coated plate, chemiluminescence). It counts as biochemical. As to conditions: PARP1 0.02 nM, DNA 0.8 nM, NAD+ 3.5 µM; read-out: PARP-1 IC50. The protocol:
1.1.1. Buffer preparation: PBST: 1× PBS, 0.05% Tween-20; blocking buffer: 1× PBS, 0.05% Tween-20, 5% BSA; reaction buffer: 50 mM Tris-HCl (pH 7.5), 0.005% Tween-20, 0.01% BSA.
1.1.2. Coating: A 50 ng/mL Histone coating solution was prepared with 1× PBS and then transferred to a 384-well reaction plate at 25 µL/well. The plate was coated at 4 °C overnight.
1.1.3. Washing: After the coating was completed, the coating solution was discarded, and the plate was washed with the PBST solution. The method was as follows: PBST was transferred to the 384-well reaction plate at 50 µL/well, and the plate was left to stand for 5 min. The washing solution was then discarded, and the plate was refilled. The washing step was repeated 3 times. Finally, the reaction plate was patted dry and left for the next step of blocking.
1.1.4. Blocking: The blocking buffer was transferred to the 384-well reaction plate at 50 µL/well, and the plate was left to stand for 1 h.
Washing: After the blocking was completed, the blocking buffer was discarded, and the plate was washed 3 times with the PBST solution according to the method in step 2. Finally, the reaction plate was patted dry.
1.1.5. A 1000-fold solution of a compound was prepared and then transferred at 1 µL/well to a 96-well plate containing 199 µL of the reaction buffer. The mixture was well mixed, and then the well mixed compound solution was transferred to the 384-well reaction plate at 5 µL/well. 1.1.6. A 25/10-fold PARP1-DNA solution was prepared with the reaction buffer and then transferred to the 384-well reaction plate at 10 µL/well. For the negative control wells, 10 µL
of the DNA solution was transferred. The final concentrations of PARP1 and DNA were 0.02 nM and 0.8 nM, respectively.
1.1.9. Washing: After the reaction was completed, the reaction solution was discarded, and the plate was washed 3 times with the PBST solution according to the method in step 2. Finally, the reaction plate was patted dry.
1.1.10. A primary antibody (anti-Poly/Mono-ADP Ribose Rabbit mAb) was diluted 2000-fold with the blocking buffer and then added at 20 µL/well.
1.1.11. Washing: The primary antibody was discarded, and the plate was washed 3 times with the PBST solution according to the method in step 2. Finally, the reaction plate was patted dry.
1.1.12. A secondary antibody (anti-rabbit IgG, HRP-linked Antibody) was diluted 2000-fold with the blocking buffer and then added at 20 µL/well.
1.1.13. Washing: The secondary antibody was discarded, and the plate was washed 3 times with the PBST solution according to the method in step 2. Finally, the reaction plate was patted dry.
1.1.14. Color development: Femto-ECL Substrate A and Femto-ECL Substrate B were mixed at a ratio of 1:1, and the mixture was transferred to the 384-well reaction plate at 25 µL/well. 1.1.15. Reading: The chemiluminescence values (RLU) were measured using Envision.

Assay [1] deals with BRCA-mutated MDA-MB-436 cells. Description: Anti-proliferative activity against cells (CCK8): MDA-MB-436. As to conditions: Homo sapiens, 72 h + 96 h culture. It counts as cell-based.
Assay [2] concerns BRCA wild-type DLD-1 cells. Description: Anti-proliferative activity against cells (CCK8): DLD-1. It counts as cell-based. As to conditions: Homo sapiens, 72 h + 96 h culture. The protocol: BRCA wild-type DLD-1 cells were cultured in an RPMI-1640 medium containing 10% fetal bovine serum, 100 U/mL penicillin, and 100 µg/mL streptomycin, and incubated in an incubator with 5% saturated CO2 at 37 °C. When the cells grew to 80% confluence, they were collected, centrifuged at 300 g for 10 min, and then plated onto a 96-well plate at 1000 cells/well. After 24 h, different final concentrations (0 µM, 1 µM, and 10 µM) of PARPi were added, and the cells were cultured for another 72 h. The cells were subjected to medium exchange treatment (re-supplemented with PARPi at the same final concentrations) and then cultured for another 96 h. The 96-well plate was taken out.

T1 sequence (P09874 whole entry): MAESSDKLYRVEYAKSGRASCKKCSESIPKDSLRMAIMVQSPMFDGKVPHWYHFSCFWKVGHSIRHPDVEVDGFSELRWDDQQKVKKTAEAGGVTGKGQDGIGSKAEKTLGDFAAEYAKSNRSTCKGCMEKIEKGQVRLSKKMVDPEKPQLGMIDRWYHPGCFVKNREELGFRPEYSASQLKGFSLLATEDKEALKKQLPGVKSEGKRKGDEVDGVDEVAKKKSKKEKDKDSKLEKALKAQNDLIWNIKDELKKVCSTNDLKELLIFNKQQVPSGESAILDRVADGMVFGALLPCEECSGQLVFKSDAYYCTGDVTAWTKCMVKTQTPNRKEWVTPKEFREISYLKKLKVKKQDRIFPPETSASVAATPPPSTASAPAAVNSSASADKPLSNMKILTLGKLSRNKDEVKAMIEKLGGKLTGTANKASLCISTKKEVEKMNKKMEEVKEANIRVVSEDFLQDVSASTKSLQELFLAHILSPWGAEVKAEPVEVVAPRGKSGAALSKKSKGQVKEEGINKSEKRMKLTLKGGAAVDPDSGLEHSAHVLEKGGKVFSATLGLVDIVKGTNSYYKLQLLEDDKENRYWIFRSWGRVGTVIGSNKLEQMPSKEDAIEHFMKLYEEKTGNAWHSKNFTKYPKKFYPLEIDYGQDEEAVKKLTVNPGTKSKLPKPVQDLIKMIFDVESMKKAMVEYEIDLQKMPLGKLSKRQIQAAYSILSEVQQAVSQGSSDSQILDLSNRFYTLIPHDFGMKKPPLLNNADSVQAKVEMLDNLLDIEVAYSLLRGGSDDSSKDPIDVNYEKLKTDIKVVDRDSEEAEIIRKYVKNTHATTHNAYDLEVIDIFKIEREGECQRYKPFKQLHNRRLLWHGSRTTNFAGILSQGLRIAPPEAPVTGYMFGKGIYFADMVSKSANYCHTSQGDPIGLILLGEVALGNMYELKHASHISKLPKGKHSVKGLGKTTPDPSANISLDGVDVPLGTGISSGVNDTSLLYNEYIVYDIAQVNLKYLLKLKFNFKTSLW

The IC50 is the concentration that gives 50% inhibition. For the compound `CNC(=O)c1ccc(N2CCN(CC3Cc4[nH]c(=O)c(C)cc4CO3)CC2)c(C#N)n1` (stereo not drawn) [Example 76, 6-Cyano-N-methyl-5-(4-((3-methyl-2-oxo-1,5,7,8-tetrahydro-2H-pyrano[4,3-b]pyridin-7-yl)methyl)piperazin-1-yl)picolinamide], the IC50 was at most 50 nM at PARP1, 9.6 nM in assay [1] and over 1000 nM in assay [2].

`CNC(=O)c1ccc(C2CCN(CC3Cc4[nH]c(=O)c(C5CC5)cc4CO3)CC2)c(F)n1` (stereo not drawn) [Example 61, 5-(1-((3-Cyclopropyl-2-oxo-1,5,7,8-tetrahydro-2H-pyrano[4,3-b]pyridin-7-yl)methyl)piperidin-4-yl)-6-fluoro-N-methylpicolinamide]: the IC50 on PARP1 was 50 to 500 nM; in assay [1], 360 nM; in assay [2], over 1000 nM.

`CCc1cc2c([nH]c1=O)CC(CN1CCC(c3ccc(C(=O)NC)nc3F)CC1)OC2` (stereo not drawn) [Example 60, 5-(1-((3-Ethyl-2-oxo-1,5,7,8-tetrahydro-2H-pyrano[4,3-b]pyridin-7-yl)methyl)piperidin-4-yl)-6-fluoro-N-methylpicolinamide]: the IC50 at PARP1 was 50 to 500 nM; in assay [1] it was 120 nM; in assay [2], over 1000 nM.

For the compound `CNC(=O)c1ccc(C2=CCN(CC3Cc4[nH]c(=O)c(C)cc4CO3)CC2)c(F)n1` (stereo not drawn) [Example 50, 2-Fluoro-N-methyl-1'-((3-methyl-2-oxo-1,5,7,8-tetrahydro-2H-pyrano[4,3-b]pyridin-7-yl)methyl)-1',2',3',6'-tetrahydro-[3,4'-bipyridine]-6-carboxamide], the results for the IC50 (on PARP1; in assay [1]; in assay [2]) were 50 to 500 nM, 350 nM and over 1000 nM, respectively.

As to `CNC(=O)c1ccc(N2CCN(CC3Cc4[nH]c(=O)c(C5CC5)cc4CO3)CC2)c(Cl)n1` (stereo not drawn) [Example 73, 6-Chloro-5-(4-((3-cyclopropyl-2-oxo-1,5,7,8-tetrahydro-2H-pyrano[4,3-b]pyridin-7-yl)methyl)piperazin-1-yl)-N-methylpicolinamide], the figures for the IC50 (on PARP1; in assay [1]; in assay [2]) were 50 to 500 nM, 15 nM and over 1000 nM, respectively.

For the compound `CCc1nc2c([nH]c1=O)C[C@@H](CN1CCC(c3ccc(C(=O)NC)nc3F)CC1)CC2` [Example 54, (S)-5-(1-((2-Ethyl-3-oxo-3,4,5,6,7,8-hexahydroquinoxalin-6-yl)methyl)piperidin-4-yl)-6-fluor o-N-methylpicolinamide], the results for the IC50 (at PARP1; in assay [1]; in assay [2]) were 50 to 500 nM, 250 nM and over 1000 nM, respectively.

In the case of `CNC(=O)c1ccc(C2=CCN(CC3Cc4[nH]c(=O)c(C)cc4CO3)CC2)c(Cl)n1` (stereo not drawn) [Example 70, 2-Chloro-N-methyl-1'-((3-methyl-2-oxo-1,5,7,8-tetrahydro-2H-pyrano[4,3-b]pyridin-7-yl)methyl)-1',2',3',6'-tetrahydro-[3,4'-bipyridine]-6-carboxamide], the figures for the IC50 (at PARP1; in assay [1]; in assay [2]) were 50 to 500 nM, 300 nM and over 1000 nM, respectively.

For `CNC(=O)c1ccc(C2=CCN(CC3Cc4[nH]c(=O)c(C5CC5)cc4CO3)CC2)c(Cl)n1` (stereo not drawn) [Example 69, 2-Chloro-1'-((3-cyclopropyl-2-oxo-1,5,7,8-tetrahydro-2H-pyrano[4,3-b]pyridin-7-yl)methyl)-N-methyl-1',2',3',6'-tetrahydro-[3,4'-bipyridine]-6-carboxamide], the IC50 on PARP1 is 50 to 500 nM; in assay [1], 180 nM; in assay [2] it was over 1000 nM.

Take `CCc1cc2c([nH]c1=O)CC(CN1CCN(c3ccc(C(=O)NC4CC4)nc3)CC1)OC2` (stereo not drawn) [Compound 4, N-Cyclopropyl-5-(4-((3-ethyl-2-oxo-1,5,7,8-tetrahydro-2H-pyrano[4,3-b]pyridin-7-yl)methyl)piperazin-1-yl) picolinamide]: the results for the IC50 (at PARP1; in assay [1]; in assay [2]) were at most 50 nM, 4 nM and over 1000 nM, respectively.

For `C=Cc1cc2c([nH]c1=O)CC(CN1CC=C(c3ccc(C(=O)NC)nc3F)CC1)OC2` (stereo not drawn) [Example 68, 2-Fluoro-N-methyl-1'-((2-oxo-3-vinyl-1,5,7,8-tetrahydro-2H-pyrano[4,3-b]pyridin-7-yl)methyl)-1',2',3',6'-tetrahydro-[3,4'-bipyridine]-6-carboxamide], the IC50 is at most 50 nM on PARP1, 6 nM in assay [1] and over 1000 nM in assay [2].

For the compound `CCc1cc2c([nH]c1=O)CC(CN1CCN(c3ccc(C(=O)NC)nc3C)CC1)OC2` (stereo not drawn) [Compound 38, 5-(4-((3-Ethyl-2-oxo-1,5,7,8-tetrahydro-2H-pyrano[4,3-b]pyridin-7-yl)methyl)piperazin-1-yl)-N,6-dimethylpicoli namide], the IC50 on PARP1 is at most 50 nM; in assay [1], 3.5 nM; in assay [2], over 1000 nM.

Consider `CCc1cc2c([nH]c1=O)CC(CN1CCN(c3ccc(C(=O)NC4CC4)nc3F)CC1)OC2` (stereo not drawn) [Compound 3, N-Cyclopropyl-5-(4-((3-ethyl-2-oxo-1,5,7,8-tetrahydro-2H-pyrano[4,3-b]pyridin-7-yl)methyl)piperazin-1-yl)-6-fluoropicolinamide], for which the values for the IC50 (on PARP1; in assay [1]; in assay [2]) were at most 50 nM, 1.5 nM and over 1000 nM, respectively.

With `CNC(=O)c1ccc(N2CCN(CC3Cc4[nH]c(=O)c(C)c(C)c4CO3)CC2)c(Cl)n1` (stereo not drawn) [Example 100, 6-Chloro-5-(4-((3,4-dimethyl-2-oxo-1,5,7,8-tetrahydro-2H-pyrano[4,3-b]pyridin-7-yl)methyl)piperazin-1-yl)-N-methylpicolinamide], the 50% inhibitory concentration (IC50) at PARP1 was at most 50 nM; in assay [1] it was 15.5 nM; in assay [2] it was over 1000 nM.

`[2H]C([2H])([C@H]1CCc2nc(C)c(=O)[nH]c2C1)N1CCN(c2ccc(C(=O)NC3CC3)nc2F)CC1` [Example 88, (S)-N-Cyclopropyl-6-fluoro-5-(4-((2-methyl-3-oxo-3,4,5,6,7,8-hexahydroquinoxalin-6-yl)methyl-d2)piperazin-1-yl)picolinamide]: the half-maximal inhibitory concentration (IC50) at PARP1 is at most 50 nM; in assay [1] it was 6.5 nM; in assay [2], over 1000 nM.

For the compound `CNC(=O)c1ccc(C2=CCN(CC3Cc4[nH]c(=O)c(Cl)cc4CO3)CC2)c(F)n1` (stereo not drawn) [Example 63, 1'-((3-Chloro-2-oxo-1,5,7,8-tetrahydro-2H-pyrano[4,3-b]pyridin-7-yl)methyl)-2-fluoro-N-met hyl-1',2',3',6'-tetrahydro-[3,4'-bipyridine]-6-carboxamide], the 50% inhibitory concentration (IC50) was 50 to 500 nM at PARP1, 430 nM in assay [1] and over 1000 nM in assay [2].

In the case of `CCc1cc2c([nH]c1=O)CC(CN1CCN(c3ccc(C(=O)Nc4cnn(C)c4)nc3F)CC1)OC2` (stereo not drawn) [Example 78, 5-(4-((3-Ethyl-2-oxo-1,5,7,8-tetrahydro-2H-pyrano[4,3-b]pyridin-7-yl)methyl)piperazin-1-yl) -6-fluoro-N-(1-methyl-1H-pyrazol-4-yl)picolinamide], the IC50 on PARP1 is at most 50 nM; in assay [1], 2.8 nM; in assay [2], over 1000 nM.

Take `Cc1cc2c([nH]c1=O)CC(CN1CCN(c3ccc(C(=O)NC4CC4)nc3F)CC1)OC2` (stereo not drawn) [Example 41, N-Cyclopropyl-6-fluoro-5-(4-((3-methyl-2-oxo-1,5,7,8-tetrahydro-2H-pyrano[4,3-b]pyridin-7-yl)methyl)piperazin-1-yl)picolinamide]: the IC50 was 50 to 500 nM at PARP1, 16 nM in assay [1] and over 1000 nM in assay [2].

The record behind these values is patent EP4768487A1, “FUSED LACTAM RING COMPOUND AND USE THEREOF” (Chengdu Zenitar Biomedical Technology Co., Ltd., priority 2023, dated 2025).
